Results on 26 compounds are retold here after ChEMBL document CHEMBL1154105, “Optimization of peptide-based inhibitors of prostate-specific antigen (PSA) as targeted imaging agents for prostate cancer” (Bioorg Med Chem, 2009).

The term Ki denotes a measure of affinity in units of concentration, obtained from inhibition or displacement. A low value points to tighter binding.

Starred links: 1 amine or outer side, 2 acyl side, 3 side chain; linkers in the order of their positions; H or OH if unused. Non-standard residues stand in square brackets, D forms with d. Residues, ends and D or L forms follow the SMILES beside them. *: point of attachment. Ala(imidazol-2-yl) = N[C@@H](Cc1ncc[nH]1)C(=O)O; X2 = C[C@@H](C(=O)[*:2])N(c1ccc2ccccc2c1)[*:1]; Phe(4-Br) = N[C@@H](Cc1ccc(Br)cc1)C(=O)O; N(cHex)Ala = C[C@H](NC1CCCCC1)C(=O)O; Pro(3R-OH) = O=C(O)[C@H]1NCC[C@H]1O; hIle = CC[C@H](C)C[C@H](N)C(=O)O; Met(O) = CS(=O)CC[C@H](N)C(=O)O; boroLeu = CC(C)C[C@H](N*)B(O)O; NPhGly = O=C(O)CNc1ccccc1; Cbz = O=C(OCc1ccccc1)*; tBu = CC(C)(C)* Some results are limits rather than exact numbers.

System in one test: not listed separately
Briefly: Selectivity ratio of Ki for chymotrypsin to Ki for prostate-specific antigen. The settings on record: Prostate gland.
`CC(C)C[C@H](NC(=O)[C@H](CC(C)C)NC(=O)[C@H](CCCCN)NC(=O)[C@H](CO)NC(=O)[C@H](CO)NC(=O)OCc1ccccc1)B(O)O` (Cbz-SSKL-boroLeu): the Ratio Ki is 60.

The target in another test is T1, Prostate-specific antigen (Homo sapiens, UniProt P07288).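 Note: Fluorescence-based readout of substrate cleavage by prostate-specific antigen, used to gauge enzyme inhibition.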
T1 sequence (P07288 whole entry): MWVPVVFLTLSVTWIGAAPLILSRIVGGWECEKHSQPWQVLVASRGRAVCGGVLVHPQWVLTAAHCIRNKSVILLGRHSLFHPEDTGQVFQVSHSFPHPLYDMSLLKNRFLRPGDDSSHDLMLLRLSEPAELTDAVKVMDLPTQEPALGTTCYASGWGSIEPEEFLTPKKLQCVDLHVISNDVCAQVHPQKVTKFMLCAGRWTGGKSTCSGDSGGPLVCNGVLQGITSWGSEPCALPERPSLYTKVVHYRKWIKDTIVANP
Briefly: biochemical.
Conditions: not given
The test is classed as tissue-based, Prostate gland.
In the case of `CC[C@H](C)C[C@H](NC(=O)[C@H](CCCCN)NC(=O)[C@H](CO)NC(=O)[C@H](CO)NC(=O)OCc1ccccc1)C(=O)N[C@H](C=O)CC(C)C` (Cbz-SSK[hIle]L-aldehyde), the Ki came to 37.4 µM. `CC(C)C[C@@H](C=O)NC(=O)[C@@H]1[C@H](O)CCN1C(=O)[C@H](CCCCN)NC(=O)[C@H](CO)NC(=O)[C@H](CO)NC(=O)OCc1ccccc1` (Cbz-SSK[Pro(3R-OH)]L-aldehyde) returned a Ki greater than 500 µM. Same read-out and setting: the same measure for `CC(C)C[C@@H](C=O)NC(=O)[C@H](CC(C)C)NC(=O)[C@H](CCC(N)=O)NC(=O)[C@H](CO)NC(=O)[C@H](CO)NC(=O)OCc1ccccc1` (Cbz-SSQLL-aldehyde): 3.9 µM; for `CC(C)C[C@@H](C=O)NC(=O)[C@H](CCCCN)NC(=O)[C@H](CCCCN)NC(=O)[C@H](CO)NC(=O)[C@H](CO)NC(=O)OCc1ccccc1` (Cbz-SSKKL-aldehyde): greater than 50 µM.

`CC(C)C[C@@H](C=O)NC(=O)[C@H](CC(C)C)NC(=O)[C@@H](NC(=O)[C@H](CO)NC(=O)[C@H](CO)NC(=O)OCc1ccccc1)[C@@H](C)O` (Cbz-SSTLL-aldehyde) registered a Ki of 43.8 µM.

On to `CC(C)C[C@@H](C=O)NC(=O)CNC(=O)[C@H](CCCCN)NC(=O)[C@H](CO)NC(=O)[C@H](CO)NC(=O)OCc1ccccc1` (Cbz-SSKGL-aldehyde), for which the Ki was greater than 1000 µM. For the compound `CC(C)C[C@@H](C=O)NC(=O)[C@@H]1CCCN1C(=O)[C@H](CCCCN)NC(=O)[C@H](CO)NC(=O)[C@H](CO)NC(=O)OCc1ccccc1` (Cbz-SSKPL-aldehyde), the Ki was greater than 500 µM. Same read-out and setting: under `CC(C)C[C@@H](C=O)NC(=O)[C@H](CC(C)C)NC(=O)[C@H](CC[S+](C)[O-])NC(=O)[C@H](CO)NC(=O)[C@H](CO)NC(=O)OCc1ccccc1` (stereo partly specified) (Cbz-SS[Met(O)]LL-aldehyde) stands 25.9 µM; under `CC(C)C[C@@H](C=O)NC(=O)[C@H](C)NC(=O)[C@H](CCCCN)NC(=O)[C@H](CO)NC(=O)[C@H](CO)NC(=O)OCc1ccccc1` (Cbz-SSKAL-aldehyde), greater than 100 µM; under `CC(C)C[C@@H](C=O)NC(=O)[C@H](CC(C)C)NC(=O)[C@H](CCC(=O)O)NC(=O)[C@H](CO)NC(=O)[C@H](CO)NC(=O)OCc1ccccc1` (Cbz-SSELL-aldehyde), greater than 1000 µM. The compound `CC(C)C[C@@H](C=O)NC(=O)[C@H](Cc1ncc[nH]1)NC(=O)[C@H](CCCCN)NC(=O)[C@H](CO)NC(=O)[C@H](CO)NC(=O)OCc1ccccc1` (Cbz-SSK[Ala(imidazol-2-yl)]L-aldehyde) registered a Ki of 18.6 µM. Compound `CSCC[C@H](NC(=O)[C@H](CO)NC(=O)[C@H](CO)NC(=O)OCc1ccccc1)C(=O)N[C@@H](CC(C)C)C(=O)N[C@H](C=O)CC(C)C` (Cbz-SSMLL-aldehyde) came in with a Ki of 7.5 µM. The same measure, in the same setting: the same measure for `CC(C)C[C@@H](C=O)NC(=O)[C@H](Cc1ccc(Br)cc1)NC(=O)[C@H](CCCCN)NC(=O)[C@H](CO)NC(=O)[C@H](CO)NC(=O)OCc1ccccc1` (Cbz-SSK[Phe(4-Br)]L-aldehyde): greater than 500 µM; for `CC(C)C[C@@H](C=O)NC(=O)[C@H](CC(C)C)NC(=O)CNC(=O)[C@H](CO)NC(=O)[C@H](CO)NC(=O)OCc1ccccc1` (Cbz-SSGLL-aldehyde): greater than 1000 µM; for `CC(C)C[C@@H](C=O)NC(=O)[C@H](CSC(C)(C)C)NC(=O)[C@H](CCCCN)NC(=O)[C@H](CO)NC(=O)[C@H](CO)NC(=O)OCc1ccccc1` (Cbz-SSKC(tBu)L-aldehyde): greater than 50 µM. The same measure, in the same setting: under `CC(C)C[C@@H](C=O)NC(=O)[C@H](CC(C)C)NC(=O)[C@H](C)N(C(=O)[C@H](CO)NC(=O)[C@H](CO)NC(=O)OCc1ccccc1)C1CCCCC1` (Cbz-SS[N(cHex)Ala]LL-aldehyde) stands 13.1 µM. On the same count and under the same terms, under `CC(C)C[C@@H](C=O)NC(=O)[C@H](CCC(N)=O)NC(=O)[C@H](CCCCN)NC(=O)[C@H](CO)NC(=O)[C@H](CO)NC(=O)OCc1ccccc1` (Cbz-SSKQL-aldehyde) stands 21.8 µM; under `CC(C)C[C@@H](C=O)NC(=O)[C@H](CC(C)C)NC(=O)[C@H](CC(N)=O)NC(=O)[C@H](CO)NC(=O)[C@H](CO)NC(=O)OCc1ccccc1` (Cbz-SSNLL-aldehyde), 18.2 µM. `CC(C)C[C@@H](C=O)NC(=O)[C@@H](NC(=O)[C@H](CCCCN)NC(=O)[C@H](CO)NC(=O)[C@H](CO)NC(=O)OCc1ccccc1)C(C)C` (Cbz-SSKVL-aldehyde) showed a Ki greater than 50 µM. Consider `CC(C)C[C@@H](C=O)NC(=O)[C@H](CC(=O)O)NC(=O)[C@H](CCCCN)NC(=O)[C@H](CO)NC(=O)[C@H](CO)NC(=O)OCc1ccccc1` (Cbz-SSKDL-aldehyde), for which the Ki is greater than 1000 µM. Same read-out and setting: under `CC(C)C[C@@H](C=O)NC(=O)[C@H](C)N(C(=O)[C@H](CCCCN)NC(=O)[C@H](CO)NC(=O)[C@H](CO)NC(=O)OCc1ccccc1)C1CCCCC1` (Cbz-SSK[N(cHex)Ala]L-aldehyde) stands greater than 50 µM; under `CC(C)C[C@@H](C=O)NC(=O)[C@H](CC(C)C)NC(=O)[C@@H]1CCCN1C(=O)[C@H](CO)NC(=O)[C@H](CO)NC(=O)OCc1ccccc1` (Cbz-SSPLL-aldehyde), greater than 1000 µM; under `CC(C)C[C@@H](C=O)NC(=O)CN(C(=O)[C@H](CCCCN)NC(=O)[C@H](CO)NC(=O)[C@H](CO)NC(=O)OCc1ccccc1)c1ccccc1` (Cbz-SSK[NPhGly]L-aldehyde), greater than 50 µM. Still for that read-out and setting: under `CC(C)C[C@@H](C=O)NC(=O)[C@H](CO)NC(=O)[C@H](CCCCN)NC(=O)[C@H](CO)NC(=O)[C@H](CO)NC(=O)OCc1ccccc1` (Cbz-SSKSL-aldehyde) stands greater than 50 µM; under `CC(C)C[C@@H](C=O)NC(=O)[C@H](C)N(C(=O)[C@H](CCCCN)NC(=O)[C@H](CO)NC(=O)[C@H](CO)NC(=O)OCc1ccccc1)c1ccc2ccccc2c1` (Cbz-SSK[X2]L-aldehyde), greater than 100 µM.
